Data on 51 compounds can be found in patent US20240217968A1, “PHARMACEUTICAL COMPOUND” (DUKE STREET BIO LIMITED, priority 2021, published 2024).

The experiment addresses T1, recombinant human Flag-tagged PARP7 (amino acids 456-657) (Homo sapiens, UniProt Q7Z3E1).
T1 construct: recombinant human Flag-tagged PARP7 (amino acids 456-657)
T1 sequence (Q7Z3E1 456-657): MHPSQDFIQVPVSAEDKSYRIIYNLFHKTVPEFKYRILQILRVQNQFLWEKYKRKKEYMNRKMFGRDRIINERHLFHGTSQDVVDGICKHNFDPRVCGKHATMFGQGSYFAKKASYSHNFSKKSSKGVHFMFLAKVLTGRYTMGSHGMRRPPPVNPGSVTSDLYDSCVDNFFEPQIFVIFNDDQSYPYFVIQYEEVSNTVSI
Briefly: PARP7 biochemical DELFIA assay (auto-MARylation). The note with it: DELFIA readout, IC50 class. The method, boiled down: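 Readout is DELFIA time-resolved Eu fluorescence (Ex337 nm, Em620 nm) of biotin-ADP-ribose on immobilised Flag-tagged PARP7 456-657. Enzyme (12.5-37.5 nM as added) sat 30 min with compound before biotin-NAD+ (15 μM solution, pH 7.5 HEPES buffer) started 2-3 h room-temperature self-modification, stopped with excess NAD+.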
Take `CC(OCCCC(=O)N1CCN(c2ncc(C(F)(F)F)cn2)CC1)c1cc(F)cc2c(=O)[nH]ncc12` (single isomer, unassigned) [Compound 130]: the IC50 is at most 0.1 µM.
As for `CC(COCCC(=O)N1CCN(c2ccc(C3COC3)cn2)CC1)n1nc(C(F)(F)F)c2c(=O)[nH]ncc21` (single isomer, unassigned) [Compound 310], the IC50 is at most 0.1 µM.
`N#Cc1ccc(N2CCN(C(=O)CCOCCn3c(C(F)(F)F)nc4c(=O)[nH]ncc43)CC2)nc1` [Compound 272]: the half-maximal inhibitory concentration (IC50) was in the range of 1 to 10 µM.
The same measure for `O=C(CCNCCN1CCCc2c1cn[nH]c2=O)N1CCN(c2ncc(C(F)(F)F)cn2)CC1` [Compound 61]: 0.1 to 1 µM.
The same measure for `CC1(C)CN(C(=O)CCOCCn2nc(C(F)(F)F)c3c(=O)[nH]ncc32)CCN1c1ncc(C(F)(F)F)cn1` [Compound 182]: at most 0.1 µM; for `CC1CN(c2ncc(C(F)(F)F)cn2)CCN1C(=O)CCOCCc1cccc2c(=O)[nH]ncc12` (stereo not drawn) [Compound 88]: at most 0.1 µM.
For the compound `O=C1NCCn2c(CCOCCC(=O)N3CCN(c4ncc(C(F)(F)F)cn4)CC3)nc(C(F)(F)F)c21` [Compound 235, 3-(2-(3-oxo-3-(4-(5-(trifluoromethyl)pyrimidin-2-yl)piperazin-1-yl)propoxy)ethyl)-1-(trifluoromethyl)-6,7-dihydroimidazo[1,5-a]pyrazin-8(5H)-one], the IC50 is at most 0.1 µM.
The same measure for `CC(COCCC(=O)N1CCN(c2ccc(C(F)(F)F)cn2)CC1)n1cc(C(F)(F)F)c2c(=O)[nH]ncc21` (stereo not drawn) [Compound 376]: at most 0.1 µM; for `O=C(CCOCCc1cccc2c(=O)[nH]ccc12)N1CCN(c2ncc(C(F)(F)F)cn2)CC1` [Compound 233]: at most 0.1 µM; for `CN(CCCC(=O)N1CCN(c2ncc(C(F)(F)F)cn2)CC1)Cc1cccc2c(=O)[nH]ncc12` [Compound 167]: 0.1 to 1 µM.
The same measure for `O=C(CCOCCc1cccc2c(=O)[nH]ncc12)N1CCN(c2ncc(C(F)(F)F)cn2)C(CO)C1` (single isomer, unassigned) [Compound 149]: at most 0.1 µM.
Consider `CC(COCCC(=O)N1CCN(c2ccc(OC(F)F)cn2)CC1)n1nc(C(F)(F)F)c2c(=O)[nH]ncc21` (stereo not drawn) [Compound 275], for which the IC50 is at most 0.1 µM.
As for `CCC(COCCC(=O)N1CCN(c2ncc(C(F)(F)F)cn2)CC1)n1cc(C(F)(F)F)c2c(=O)[nH]ncc21` (single isomer, unassigned) [Compound 339], the figure is at most 0.1 µM.
Turning to `CC(COCCC(=O)N1CCN(c2ccc(F)cn2)CC1)n1nc(C(F)(F)F)c2c(=O)[nH]ncc21` (stereo not drawn) [Compound 348], the half-maximal inhibitory concentration (IC50) was at most 0.1 µM.
The same measure for `O=C(CCOCCc1cccc2c(=O)[nH]ncc12)N1CCC(c2ncc(Cl)cn2)CC1` [Compound 115]: 0.1 to 1 µM; for `N#Cc1ccc(N2CCN(C(=O)c3cccc(COc4cccc5c(=O)[nH]ncc45)c3)CC2)nc1` [Compound 40]: 0.1 to 1 µM; for `CC1CN(C(=O)CCOCCn2nc(C(F)(F)F)c3c(=O)[nH]ncc32)CCN1c1ncc(C(F)(F)F)cn1` (single isomer, unassigned) [Compound 188]: at most 0.1 µM.
With `CC(COCCC(=O)N1CCN(c2ccc(C(F)(F)F)cn2)CC1)n1cc(C(F)(F)F)c2c(=O)[nH]ncc21` (stereo not drawn) [Compound 377], the half-maximal inhibitory concentration (IC50) is at most 0.1 µM.
Take `N#Cc1ccc2oc(N3CCN(C(=O)CCOCCc4cccc5c(=O)[nH]ncc45)CC3)nc2c1` [Compound 208]: the IC50 was at most 0.1 µM.
The same measure for `O=C(CCOCCc1cccc2c(=O)[nH]ncc12)N1CCN(c2ncc(Cl)cn2)CC1` [Compound 100]: at most 0.1 µM; for `[2H]C([2H])(Cn1nc(C(F)(F)F)c2c(=O)[nH]ncc21)OCCC(=O)N1CCN(c2ncc(C#N)cn2)CC1` [Compound 408]: at most 0.1 µM; for `O=C(CCOCCn1cc(C(F)(F)F)c2c(=O)[nH]ncc21)N1CCN(c2nc(C(F)(F)F)co2)CC1` [Compound 363]: at most 0.1 µM.
As for `Cc1cc2c(=O)[nH]ncc2n1CCOCCC(=O)N1CCN(c2ncc(C(F)(F)F)cn2)CC1` [Compound 77], the figure is at most 0.1 µM; as for `N#Cc1ccc(N2CCN(C(=O)Cc3cccc(Cc4cccc5c(=O)[nH]ncc45)c3)CC2)nc1` [Compound 38], 1 to 10 µM; as for `N#Cc1ccc(N2CCN(C(=O)c3cccc(Cc4cccc5c4CCCNC5=O)c3)CC2)nc1` [Compound 204], 0.1 to 1 µM.
Turning to `O=C(COCCNc1cccc2c(=O)[nH]cnc12)N1CCN(c2ncc(C(F)(F)F)cn2)CC1` [Compound 17], the IC50 is 1 to 10 µM.
On to `CC(COCCC(=O)N1CCN(c2ncc(C(F)(F)F)cn2)CC1)n1ccc2c(=O)[nH]ncc21` (stereo not drawn) [Compound 75], for which the IC50 was at most 0.1 µM.
As for `CC(COCCC(=O)N1CCN(c2ccc(Cl)cn2)CC1)n1nc(C(F)(F)F)c2c(=O)[nH]ncc21` (stereo not drawn) [Compound 211], the figure is at most 0.1 µM; as for `O=C(CCOCCc1c(Cl)ccc2c(=O)[nH]ncc12)N1CCN(c2ncc(C(F)(F)F)cn2)CC1` [Compound 410], at most 0.1 µM.
Consider `CC(COCCC(=O)N1CCN(c2cc(C(F)(F)F)ccn2)CC1)n1nc(C(F)(F)F)c2c(=O)[nH]ncc21` (stereo not drawn) [Compound 352], for which the IC50 is at most 0.1 µM.
On to `N#Cc1ccc(N2CCN(C(=O)c3cccc(Cc4cccc5c4CCNC5=O)c3)CC2)nc1` [Compound 20], for which the IC50 lay within 0.1 to 1 µM.
As for `O=C1NCc2c(CCOCCC(=O)N3CCN(c4ncc(C(F)(F)F)cn4)CC3)cccc21` [Compound 54], the figure is 0.1 to 1 µM.
The same measure for `O=C(CCOCCn1cc(C(F)(F)F)c2c(=O)[nH]ncc21)N1CCN(c2ncc(C(F)(F)F)cn2)CC1` [Compound 131, 1-(2-(3-oxo-3-(4-(5-(trifluoromethyl)pyrimidin-2-yl)piperazin-1-yl)propoxy)ethyl)-3-(trifluoromethyl)-1,5-dihydro-4H-pyrrolo[2,3-d]pyridazin-4-one]: at most 0.1 µM; for `CCc1cc2c(=O)[nH]ncc2n1CCOCCC(=O)N1CCN(c2ncc(C(F)(F)F)cn2)CC1` [Compound 59]: 0.1 to 1 µM; for `O=C(CCOCCn1nc(C(F)(F)F)c2c(=O)[nH]ncc21)N1CCN(C2CN(CC(F)(F)F)C2)CC1` [Compound 433]: 1 to 10 µM.
For the compound `O=C(CCOCCn1nc(C(F)(F)F)c2c(=O)[nH]ncc21)N1CCN(c2ncc(C(F)(F)F)[nH]2)CC1` [Compound 488], the half-maximal inhibitory concentration (IC50) was at most 0.1 µM.
As for `CC(COCCC(=O)N1CCN(c2cnc(C(F)F)cn2)CC1)n1nc(C(F)(F)F)c2c(=O)[nH]ncc21` (single isomer, unassigned) [Compound 323], the figure is at most 0.1 µM; as for `O=C1NCCn2c(CCOCCC(=O)N3CCN(c4ncc(C(F)(F)F)cn4)CC3)cc(C(F)(F)F)c21` [Compound 316, 6-(2-(3-oxo-3-(4-(5-(trifluoromethyl)pyrimidin-2-yl)piperazin-1-yl)propoxy)ethyl)-8-(trifluoromethyl)-3,4-dihydropyrrolo[1,2-a]pyrazin-1(2H)-one], at most 0.1 µM; as for `CC(COCC(=O)NC1CCN(c2ncc(C(F)(F)F)cn2)CC1)n1nc(C(F)(F)F)c2c(=O)[nH]ncc21` (single isomer, unassigned) [Compound 480, 2-(2-(4-oxo-3-(trifluoromethyl)-4,5-dihydro-1H-pyrazolo[3,4-d]pyridazin-1-yl)propoxy)-N-(1-(5-(trifluoromethyl)pyrimidin-2-yl)piperidin-4-yl) acetamide], at most 0.1 µM.
The same measure for `O=C(CCOCCc1cccc2c(=O)[nH]nnc12)N1CCN(c2ncc(C(F)(F)F)cn2)CC1` [Compound 52]: 0.1 to 1 µM.
Consider `N#Cc1ccc2nc(N3CCN(C(=O)CCOCCn4nc(C(F)(F)F)c5c(=O)[nH]ncc54)CC3)oc2c1` [Compound 218], for which the IC50 is at most 0.1 µM.
As for `CC(COCCC(=O)N1CCN(c2ncc(C#N)cn2)CC1)n1cc(C(F)(F)F)c2c(=O)[nH]ncc21` (single isomer, unassigned) [Compound 464], the figure is at most 0.1 µM; as for `COc1cnc(N2CCN(C(=O)CCOCC(C)n3nc(C(F)(F)F)c4c(=O)[nH]ncc43)CC2)nc1` (single isomer, unassigned) [Compound 331], at most 0.1 µM.
As for `O=C(CCOCCc1cccc2c(=O)[nH]c(=O)[nH]c12)N1CCN(c2ncc(C(F)(F)F)cn2)CC1` [Compound 45], the figure is at most 0.1 µM; as for `CC1CN(C(=O)CCOCCn2cc(C(F)(F)F)c3c(=O)[nH]ncc32)CCN1c1ncc(C(F)(F)F)cn1` (stereo not drawn) [Compound 373], at most 0.1 µM; as for `O=C(CCOCCc1cccc2c(=O)[nH]ncc12)N1CCN(c2nc3cc(Cl)ccc3o2)CC1` [Compound 172], at most 0.1 µM.
As to `CC(COCCC(=O)N1CCN(c2ccc(C(C)(F)F)cn2)CC1)n1cc(C(F)(F)F)c2c(=O)[nH]ncc21` (stereo not drawn) [Compound 483], the concentration for half-maximal inhibition (IC50) is at most 0.1 µM.
Consider `CC(COCCC(=O)N1CCN(c2nnc(C(F)(F)F)o2)CC1)n1nc(C(F)(F)F)c2c(=O)[nH]ncc21` (single isomer, unassigned) [Compound 472], for which the IC50 is at most 0.1 µM.
The same measure for `CC(COCCC(=O)N1CCN(c2ccc(C#N)cn2)CC1)n1cc(C(F)F)c2c(=O)[nH]ncc21` (stereo not drawn) [Compound 449]: at most 0.1 µM; for `O=C(CCOCCn1nc(C(F)(F)F)c2c(=O)[nH]ncc21)N1CCN(c2cc(C(F)(F)F)[nH]n2)CC1` [Compound 471]: at most 0.1 µM.
The same measure for `O=C(CCOCCn1nc(C(F)(F)F)c2c(=O)[nH]ncc21)N1CCN(c2ncc(C(F)(F)F)cn2)CC1` [Compound 153, 1-(2-(3-oxo-3-(4-(5-(trifluoromethyl)pyrimidin-2-yl)piperazin-1-yl)propoxy)ethyl)-3-(trifluoromethyl)-1,5-dihydro-4H-pyrazolo[3,4-d]pyridazin-4-one]: at most 0.1 µM.

For orientation: IC50 means the concentration that inhibits the measured activity by half.
